ChEMBL document CHEMBL3856260, “A synergistic antitumor effect of polyphyllin I and formosanin C on hepatocarcinoma cells” (Bioorg Med Chem Lett, 2016)
Active and inactive are the calls of the source. The calls are words filed in the database; no cut-off is given here.

What was measured:
[1] = Cytotoxicity against human HepG2 cells assessed as combination index at ED30 using 1:1 compound to polyphyllin I incubated for 24 hrs by MTT assay; assay type: functional
[2] = Cytotoxicity against human Bel7402 cells assessed as combination index at ED30 using 1:1 compound to polyphyllin I incubated for 24 hrs by MTT assay; assay type: functional, Bel-7402
[3] = Cytotoxicity against human HepG2 cells assessed as combination index at ED50 using 1:1 compound to polyphyllin I incubated for 24 hrs by MTT assay; assay type: functional
[4] = Cytotoxicity against human Bel7402 cells assessed as combination index at ED50 using 1:1 compound to polyphyllin I incubated for 24 hrs by MTT assay; assay type: functional, Bel-7402
[5] = Induction of apoptosis in human HepG2 cells assessed as upregulation of p53 mRNA level at 1 uM incubated for 24 hrs by RT-PCR analysis in presence of polyphyllin I; assay type: functional, cell-based
[6] = Induction of apoptosis in human HepG2 cells assessed as upregulation of Bax mRNA level at 1 uM incubated for 24 hrs by RT-PCR analysis in presence of polyphyllin I; assay type: functional, cell-based
[7] = Induction of apoptosis in human HepG2 cells assessed as upregulation of caspase3 mRNA level at 1 uM incubated for 24 hrs by RT-PCR analysis in presence of polyphyllin I; assay type: functional, cell-based
[8] = Induction of apoptosis in human HepG2 cells assessed as upregulation of p53 level at 1 uM incubated for 24 hrs by Western blot analysis in presence of polyphyllin I; assay type: functional, cell-based
[9] = Induction of apoptosis in human HepG2 cells assessed as upregulation of Bax level at 1 uM incubated for 24 hrs by Western blot analysis in presence of polyphyllin I; assay type: functional, cell-based
[10] = Induction of apoptosis in human HepG2 cells assessed as upregulation of caspase3 level at 1 uM incubated for 24 hrs by Western blot analysis in presence of polyphyllin I; assay type: functional, cell-based
[11] = test system: HepG2; experiment: Induction of apoptosis in human HepG2 cells assessed as downregulation of Bcl2 mRNA level at 1 uM incubated for 24 hrs by RT-PCR analysis in presence of polyphyllin I; assay type: functional, cell-based
[12] = test system: HepG2; experiment: Induction of apoptosis in human HepG2 cells assessed as downregulation of NF-kappaB […] level at 1 uM incubated for 24 hrs by RT-PCR analysis in presence of polyphyllin I; assay type: functional, cell-based
[13] = test system: HepG2; experiment: Induction of nuclear fragmentation in human HepG2 cells at 0.5 uM after 24 hrs by Hoechst 33258 staining-based fluorescence microscopic analysis in presence of polyphyllin I; assay type: functional, cell-based
[14] = test system: HepG2; experiment: Induction of chromatin compaction in human HepG2 cells at 0.5 uM after 24 hrs by Hoechst 33258 staining-based fluorescence microscopic analysis in presence of polyphyllin I; assay type: functional, cell-based
[15] = test system: HepG2; experiment: Induction of nuclear fragmentation in human HepG2 cells at 1 uM after 24 hrs by Hoechst 33258 staining-based fluorescence microscopic analysis; assay type: functional, cell-based
[16] = test system: HepG2; experiment: Induction of chromatin compaction in human HepG2 cells at 1 uM after 24 hrs by Hoechst 33258 staining-based fluorescence microscopic analysis; assay type: functional, cell-based
[17] = Cell cycle arrest in human HepG2 cells assessed as accumulation at G1 phase at 1 uM after 24 hrs by propidium iodide staining-based flow cytometry(reference value: 55.62%); assay type: functional
[18] = Cell cycle arrest in human HepG2 cells assessed as accumulation at S phase at 1 uM after 24 hrs by propidium iodide staining-based flow cytometry(reference value: 42.33%); assay type: functional
[19] = Cell cycle arrest in human HepG2 cells assessed as accumulation at G2 phase at 1 uM after 24 hrs by propidium iodide staining-based flow cytometry(reference value: 2.04%); assay type: functional
[20] = test system: HepG2; experiment: Induction of apoptosis in human HepG2 cells at 1 uM after 24 hrs by propidium iodide staining-based flow cytometry(reference value: 3.01%); assay type: functional
[21] = Cell cycle arrest in human HepG2 cells assessed as accumulation at G1 phase at 1 uM after 24 hrs by propidium iodide staining-based flow cytometry in presence of PPI (reference value: 55.62%); assay type: functional
[22] = Cell cycle arrest in human HepG2 cells assessed as accumulation at G2 phase at 1 uM after 24 hrs by propidium iodide staining-based flow cytometry in presence of PPI (reference value: 2.04%); assay type: functional
[23] = Cell cycle arrest in human HepG2 cells assessed as accumulation at S phase at 1 uM after 24 hrs by […] staining-based flow cytometry in presence of PPI (reference value: 42.33%); assay type: functional
[24] = test system: HepG2; experiment: Induction of apoptosis in human HepG2 cells at 1 uM after 24 hrs by propidium iodide staining-based flow cytometry in presence of PPI (reference value: 3.01%); assay type: functional
[25] = test system: HepG2; experiment: Increase in p21 mRNA level in human HepG2 cells at 1 uM incubated for 24 hrs by RT-PCR analysis in presence of polyphyllin I relative to formosanin C alone treatment; assay type: functional, cell-based
[26] = test system: HepG2; experiment: Decrease in cyclin E mRNA level in human HepG2 cells at 1 uM incubated for 24 hrs by RT-PCR analysis in presence of polyphyllin I relative to formosanin C alone treatment; assay type: functional, cell-based
[27] = test system: HepG2; experiment: Decrease in CDK2 level in human HepG2 cells at 1 uM incubated for 24 hrs by Western blot analysis in presence of polyphyllin relative to relative to polyphyllin I alone treatment; assay type: functional, cell-based
[28] = test system: HepG2; experiment: Change in PCNA mRNA level in human HepG2 cells at 1 uM incubated for 24 hrs by RT-PCR analysis in presence of polyphyllin I relative to formosanin C alone treatment; assay type: functional, cell-based
[29] = test system: HepG2; experiment: Increase in p21 level in human HepG2 cells at 1 uM incubated for 24 hrs by Western blot analysis in presence of polyphyllin I; assay type: functional, cell-based
[30] = test system: HepG2; experiment: Decrease in cyclin E level in human HepG2 cells at 1 uM incubated for 24 hrs Western blot analysis in presence of polyphyllin I; assay type: functional, cell-based
[31] = test system: HepG2; experiment: Decrease in CDK2 level in human HepG2 cells at 1 uM incubated for 24 hrs by Western blot analysis in presence of polyphyllin I; assay type: functional, cell-based
[32] = Suppression of MMP9 expression in human HepG2 cells assessed as reduction in enzyme activity at 1 uM after 24 hrs by zymographic analysis in presence of polyphyllin I; assay type: functional, cell-based
[33] = test system: HepG2; experiment: Antimigratory activity in human HepG2 cells at 1 uM after 24 hrs by wound healing assay in presence of polyphyllin I; assay type: functional, cell-based
[34] = test system: HepG2; experiment: Induction mitochondrial membrane potential changes in human HepG2 cells at 1 uM after 24 hrs by rhodamine 123 staining-based flow cytometry (reference value: 23.8+/-2.3%); assay type: functional
[35] = test system: HepG2; experiment: Induction mitochondrial membrane potential changes in human HepG2 cells at 1 uM after 24 hrs by rhodamine 123 staining-based flow cytometry in presence of polyphyllin I (reference value: 23.8+/-2.3%); assay type: functional
[36] = test system: HepG2; experiment: Induction of Bax translocation from cytosol to mitochondria in human HepG2 cells by Western blot analysis in presence of polyphyllin I; assay type: functional, cell-based
[37] = test system: HepG2; experiment: Induction of cytochrome c release in human HepG2 cells by Western blot analysis in presence of polyphyllin I; assay type: functional, cell-based
[38] = Cytotoxicity against human HepG2 cells after 24 hrs by MTT assay; assay type: functional, cell-based; settings: HepG2, 24 h
[39] = Cytotoxicity against human Bel7402 cells after 24 hrs by MTT assay; assay type: functional, cell-based; settings: Bel-7402, 24 h
[40] = Cytotoxicity against human HepG2 cells assessed as combination index at ED75 using 1:1 compound to polyphyllin I incubated for 24 hrs by MTT assay; assay type: functional
[41] = Cytotoxicity against human Bel7402 cells assessed as combination index at ED75 using 1:1 compound to polyphyllin I incubated for 24 hrs by MTT assay; assay type: functional, Bel-7402
[42] = Cytotoxicity against human HepG2 cells assessed as combination index at ED90 using 1:1 compound to polyphyllin I incubated for 24 hrs by MTT assay; assay type: functional
[43] = Cytotoxicity against human Bel7402 cells assessed as combination index at ED90 using 1:1 compound to polyphyllin I incubated for 24 hrs by MTT assay; assay type: functional, Bel-7402
[44] = test system: HepG2; experiment: Change in PCNA mRNA level in human HepG2 cells at 1 uM incubated for 24 hrs by RT-PCR analysis in presence of polyphyllin I relative to polyphyllin I alone treatment; assay type: functional, cell-based
[45] = Suppression of MMP9 expression in human HepG2 cells at 1 uM after 24 hrs by Western blot analysis in presence of polyphyllin I; assay type: functional, cell-based
[46] = test system: HepG2; experiment: Induction of Bax translocation from cytosol to mitochondria in human HepG2 cells by Western blot analysis; assay type: functional, cell-based
[47] = test system: HepG2; experiment: Induction of cytochrome c release in human HepG2 cells by Western blot analysis; assay type: functional, cell-based

Compound `C[C@@H]1CC[C@@]2(OC1)O[C@H]1C[C@H]3[C@@H]4CC=C5C[C@@H](O[C@@H]6O[C@H](CO)[C@@H](O[C@@H]7O[C@@H](C)[C@H](O[C@@H]8O[C@@H](C)[C@H](O)[C@@H](O)[C@H]8O)[C@@H](O)[C@H]7O)[C@H](O)[C@H]6O[C@@H]6O[C@@H](C)[C@H](O)[C@@H](O)[C@H]6O)CC[C@]5(C)[C@H]4CC[C@]3(C)[C@H]1[C@@H]2C` [PENNOGENIN RAHAMNOSYL CHACOTRIOSIDE] has a CI [1] of 0.62, a CI [2] of 0.67 and a CI [3] of 0.58. For the same compound, the CI [4] was 0.58, the Activity [5] was “Active” and the Activity [6] was “Active”. For the same compound, the Activity [7] was “Active”, the Activity [8] was “Active” and the Activity [9] was “Active”. The Activity [10] was “Active”, the Activity [11] was “Active” and the Activity [12] was “Active”. For the same compound, the Activity [13] was “Active”, the Activity [14] was “Active” and the Activity [15] was “Active”. For the same compound, the Activity [16] was “Active”, the Activity [17] was 60.9% and the Activity [18] was 36.4%. The Activity [19] was 2.74%, the Activity [20] was 6.96% and the Activity [21] was 68.7%. It also gave an Activity [22] of 2.63%, an Activity [23] of 28.7% and an Activity [24] of 7.52%. The Activity [25] was “Active”, the Activity [26] was “Active” and the Activity [27] was “Active”. The Activity [28] was “Active”, the Activity [29] was “Active” and the Activity [30] was “Active”. For the same compound, the Activity [31] was “Active”, the Activity [32] was “Active” and the Activity [33] was “Active”. The Activity [34] was 32.6%, the Activity [35] was 40.6% and the Activity [36] was “Active”. For the same compound, the Activity [37] was “Active”, the IC50 [38] was 3.76 µM and the IC50 [39] was 4.36 µM. It also gave a CI [40] of 0.56, a CI [41] of 0.52 and a CI [42] of 0.54. The CI [43] was 0.46, the Activity [44] was “Active” and the Activity [45] was “Active”. For the same compound, the Activity [46] was “Active” and the Activity [47] was “Active”.
